Results taken from PubChem BioAssay AID720589 (Broad Institute, 2013).
Calls of active or inactive are those of the source.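 Rule for the calls: active = fitted curve drops below -35% activity at a concentration within twice the top valid tested dose; inconclusive = no clear call, values can overlap the other calls; inactive = signal rising instead of falling, among other cases.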

Assay: HepG2 hepatoma cell cytotoxicity, dose response, cytotoxicity control, CellTiter-Glo luminescence, cherry-pick, set 3 (AID 720589)
Details: HepG2 viability, ATP luminescence (CellTiter-Glo), 72 h, stronger effect = lower value, 0% = untreated, negative = ATP loss

CN(C)c1ccc2c(c1)[C@@H]1C[C@@H](CC(=O)NCc3ccc(Oc4ccccc4)cc3)O[C@H](CO)[C@@H]1O2
max activity (at 2.85 µM): -31.7% (inactive)

N#C[C@@H]1[C@H](c2ccc(C#Cc3ccccc3F)cc2)[C@@H](CO)N1C(=O)c1cccnc1
max activity (at 2.85 µM): -22% (inactive)

CC(C)Oc1ccc(Br)cc1C(=O)N/N=C/c1c[nH]c2ccccc12
max activity (at 2.85 µM): -17% (inactive)

COc1ccccc1-c1cn(CC[C@H]2CC[C@@H](NC(=O)C3CCCC3)[C@@H](CO)O2)nn1
max activity (at 0.011 µM): 18.9% (inactive)

CCCC[C@@H]1Cc2[nH][nH]c(=O)c2[C@H](c2ccc3ccccc3c2)O1
max activity (at 26 µM): 22% (inactive)

COc1cc(/C=C/C(=O)CC(=O)/C=C/c2ccc(O)c(OC)c2)ccc1O
max activity (at 0.3 µM): -27.1% (inactive)

O=C(C[C@@H]1CC[C@@H]2[C@H](COC[C@@H](O)CN2S(=O)(=O)c2ccc(F)cc2)O1)NCc1ccc(Cl)c(Cl)c1
max activity (at 2.85 µM): -11.2% (inactive)

C[C@H](CO)N1C[C@H](C)[C@H](CN(C)Cc2ccc(C(F)(F)F)cc2)Oc2ccc(NC(=O)CCCCCC(=O)Nc3ccccc3N)cc2CC1=O
max activity (at 8 µM): -23.5% (inactive)

O=c1[nH]c(=O)n(C2C[C@H](O)[C@@H](CO)O2)cc1C(F)(F)F (some centres undefined)
max activity (at 26 µM): -30.8% (inactive)

CCOC(=O)c1c(-c2ccc(C)cc2)csc1NC(=O)CCN1CCOCC1
max activity (at 0.011 µM): 41.8% (inactive)

CN(C)C(=O)c1cccc(-c2ccc(C3[C@@H]4CN(Cc5nccs5)C[C@H]3N4)cc2)c1 (some centres undefined)
max activity (at 0.1 µM): -30.3% (inactive)

C[C@@H]1CN([C@H](C)CO)S(=O)(=O)c2ccc(C#CC3CC3)cc2O[C@@H]1CN(C)Cc1ccccc1F
max activity (at 2.85 µM): -22% (inactive)

Cc1csc(NC(=O)CCc2c(C)nc3cc(-c4ccc(Cl)cc4)nn3c2C)n1
max activity (at 0.011 µM): 11.5% (inactive)

Cc1ccc(NC(=O)COC(=O)c2ccc3c(c2)OCO3)cc1S(=O)(=O)N1CCCCC1
max activity (at 0.9 µM): -30.2% (inactive)

O=C(Sc1cccc2cccnc12)c1ccccc1Br
max activity (at 2.85 µM): -31.3% (inactive)

C[C@H]1CN([C@@H](C)CO)C(=O)c2cc(NS(=O)(=O)c3ccc(Cl)cc3)ccc2O[C@H]1CN(C)Cc1ccc(Cl)c(Cl)c1
max activity (at 0.3 µM): -20.4% (inactive)

O=C(Cc1nn[nH]n1)c1ccccc1O
max activity (at 8 µM): -19.1% (inactive)

Cc1ccc2c(=O)n3c(nc2c1)C(Cc1ccc(O)cc1)NC(=O)c1cc2ccccc2cc1-3 (centres undefined)
max activity (at 8 µM): -16.9% (inactive)

COC(=O)C[C@@H]1CC[C@@H]2[C@H](COc3ccc(NC(=O)c4ccc(F)c(F)c4)cc3C(=O)N2C)O1
max activity (at 0.035 µM): -21% (inactive)

CC(=O)ON=C1C=CC(=C(C#N)c2ccccc2)C=C1
max activity (at 26 µM): -27.6% (inactive)

O=C(CN1C(=O)c2ccccc2S1(=O)=O)c1ccc(F)cc1
max activity (at 26 µM): 20.9% (inactive)

Nc1sc(-c2ccccc2)cc1-c1n[nH]c(=S)n1C1CCCCC1
max activity (at 26 µM): -25.2% (inactive)

COc1ccc(C2=Nn3c(nnc3-c3ccccc3F)SC2)cc1OC1CCOC1 (centres undefined)
max activity (at 0.3 µM): -28.9% (inactive)

COc1ccc(OC)c(-c2nnc3n2N=C(c2ccc(OC)c(OC4CCCC4)c2)CS3)c1
max activity (at 0.9 µM): -30% (inactive)

Cc1cc(C(=O)Nc2ccc3c(c2)C(=O)N(C)[C@@H]2CC[C@H](CC(=O)N[C@H](C)c4ccccc4)O[C@H]2CO3)no1
max activity (at 2.85 µM): -28.2% (inactive)

COCC(=O)Nc1ccc2c(c1)[C@@H]1C[C@@H](CC(=O)NCc3ccc(-c4ccccc4)cc3)O[C@@H](CO)[C@@H]1O2
max activity (at 2.85 µM): -28% (inactive)

COc1ccc(C2=Nn3c([n+](C)c4ccccc43)SC2)cc1
max activity (at 8 µM): -28.7% (inactive)

O=c1[nH]c(/C=C2\C=Nc3ccccc32)c(O)n1Cc1ccccc1F
max activity (at 26 µM): -19.8% (inactive)

COC(=O)C[C@@H]1CC[C@@H]2[C@@H](COc3ccc(NC(=O)Nc4cccc(F)c4)cc3C(=O)N2C)O1
max activity (at 2.85 µM): -34.7% (inactive)

C(=Cc1c[nH]c2ccccc12)c1ccc2ccccc2n1
max activity (at 2.85 µM): -21.4% (inactive)

Cc1occc1-c1n[nH]c(=S)n1C
max activity (at 0.1 µM): -6.52% (inactive)

C[C@H](CO)N1C[C@H](C)[C@H](CN(C)Cc2ccc(C(F)(F)F)cc2)Oc2c(NS(=O)(=O)c3ccc(Cl)cc3)cccc2C1=O
max activity (at 0.1 µM): -20% (inactive)

CCCN(C)C[C@H]1Oc2ncc(-c3ccccc3)cc2C(=O)N([C@@H](C)CO)C[C@H]1C
max activity (at 26 µM): 18.2% (inactive)

O=C(C[C@H]1C[C@H]2c3cc(NS(=O)(=O)c4ccc(F)cc4)ccc3O[C@H]2[C@H](CO)O1)NCc1ccc(Oc2ccccc2)cc1
max activity (at 26 µM): 21.5% (inactive)

Cc1ccccc1NC(=O)C(=Cc1ccc(C(=O)O)cc1)C(=O)Nc1ccccc1C
max activity (at 0.3 µM): -13.1% (inactive)

COc1ccc(-c2sc3ccccc3c2-c2ccc(OCCN3CCCCC3)cc2)cc1
max activity (at 26 µM): -22.5% (inactive)

Oc1c(Cl)cc(Cl)c2cccnc12
max activity (at 26 µM): -31.8% (inactive)

COc1ccc(CCCNC(=O)C2Cc3c(-c4ccc5c(c4)OCO5)ccnc3O2)cc1 (centres undefined)
max activity (at 0.035 µM): -34% (inactive)

COc1ccc(OC)c(-c2nnc3n2N=C(c2ccc(OC)c(OC4CCOC4)c2)CS3)c1 (centres undefined)
max activity (at 2.85 µM): -28.2% (inactive)

CCOc1cc(N2CCC(O)CC2)ccc1Nc1ncc2c(n1)N(C)c1ccccc1C(=O)N2C
max activity (at 26 µM): -18.4% (inactive)

COc1ccc(/C=C2\Oc3ccccc3C2=O)cc1
max activity (at 0.3 µM): 21% (inactive)

COc1cc(/C=C/C(=O)/C=C(O)/C=C/c2ccc(O)c(OC)c2)ccc1O
max activity (at 0.3 µM): -31.5% (inactive)

Cc1nn(-c2ccc(F)cc2)c2nc(N)c(C#N)c(-c3ccc(O)c(O)c3)c12
max activity (at 26 µM): -39.7% (inactive)

O=C(O)c1ccccc1C(=O)Nc1ccc(Oc2ccc3ccccc3c2)cc1
max activity (at 2.85 µM): -28.2% (inactive)

CO[C@H]1CN(C)C(=O)c2cc(NC(=O)c3ccc(Oc4ccccc4)cc3)ccc2OC[C@H](C)NC[C@@H]1C
max activity (at 26 µM): -95.1% (inactive)

C[C@@H]1CN([C@H](C)CO)C(=O)c2cc(NC(=O)CCCCCC(=O)Nc3ccccc3N)ccc2O[C@H]1CN(C)S(=O)(=O)c1ccc(Cl)cc1
max activity (at 0.9 µM): -26.7% (inactive)

COc1cc(OC)cc(-c2cc3nc(C)c(CCC(=O)NCc4ccccc4)c(C)n3n2)c1
max activity (at 2.85 µM): 23.9% (inactive)

CCOc1ccc(/C=C2\CCc3ccccc3C2=O)cc1
max activity (at 8 µM): -13.7% (inactive)

Cc1c(Cl)cnc(NC(=O)COC(=O)c2ccc3ncsc3c2)c1Cl
max activity (at 0.035 µM): -18.7% (inactive)

COc1ccc(/C=N/Nc2ccc(C(=O)O)cc2)cc1Br
max activity (at 0.011 µM): -16% (inactive)

Cc1cc(C(=O)CN2C(=O)c3ccccc3S2(=O)=O)c(C)n1C(C)C
max activity (at 26 µM): 17.7% (inactive)

C[C@@H]1CN([C@H](C)CO)C(=O)c2cc(NS(=O)(=O)c3ccc(Cl)cc3)ccc2O[C@@H]1CN(C)Cc1ccc(Cl)c(Cl)c1
max activity (at 0.3 µM): -36.6% (inactive)

CCCNC(=O)N1[C@H](C#N)[C@H](c2ccc(C#Cc3cccc(F)c3)cc2)[C@H]1CO
max activity (at 23.5 µM): 22.8% (inactive)

COc1ccc2oc(-c3ccccc3)cc(=O)c2c1
max activity (at 8 µM): 25.1% (inactive)

C[C@@H]1CCCCO[C@@H](CN(C)C(=O)Cc2ccccc2)[C@@H](C)CN([C@@H](C)CO)C(=O)c2cc(NS(=O)(=O)c3ccc(F)cc3)ccc2O1
max activity (at 0.3 µM): -23.7% (inactive)

COC(=O)C[C@@H]1CC[C@H]2[C@H](COc3ccc(NC(=O)Nc4cc(C)cc(C)c4)cc3C(=O)N2C)O1
max activity (at 0.35 µM): 15% (inactive)

COc1ccc(NS(=O)(=O)c2cc(NC(=O)CNC(=O)c3cccc(OC)c3)ccc2C)cc1
max activity (at 0.011 µM): -35% (inactive)

O=C1c2ccc3c4c(ccc(c24)C(=O)N1c1cccc(O)c1)C(=O)N(c1cccc(O)c1)C3=O
max activity (at 2.85 µM): -25.5% (inactive)

O=C(NCc1ccccn1)c1ccc(CNS(=O)(=O)c2cccc(Cl)c2)cc1
max activity (at 0.9 µM): -24.4% (inactive)

CCc1cnc(N2[C@H](C#N)[C@H](c3ccc(C#Cc4ccccc4F)cc3)[C@H]2CO)s1
max activity (at 0.9 µM): 65.8% (inactive)

COC(=O)C(CC#Cc1ccc2c(c1)[C@]1(C(=O)N2)[C@H](c2ccc(OCCO)cc2)N2[C@H](c3ccccc3)[C@H](c3ccccc3)OC(=O)[C@H]2[C@@H]1C(=O)N1CCN(c2ncccn2)CC1)C(=O)OC
max activity (at 0.1 µM): -11.5% (inactive)

COC(=O)C[C@@H]1CC[C@@H]2[C@H](COc3ccc(NC(=O)Nc4cccc(C#N)c4)cc3C(=O)N2C)O1
max activity (at 0.1 µM): 28.5% (inactive)

CO[C@H]1CN(C)C(=O)c2cc(NC(=O)NC(C)C)ccc2OC[C@H](C)N(Cc2ccc(-c3ccccn3)cc2)C[C@@H]1C
max activity (at 8 µM): -24.8% (inactive)

C[C@@H]1CN([C@@H](C)CO)S(=O)(=O)c2ccc(C#Cc3ccncc3)cc2O[C@H]1CN(C)S(=O)(=O)c1ccccc1
max activity (at 0.011 µM): -29.6% (inactive)

CC(C)c1ccc(OCc2cccc(C(=O)N/N=C/c3cccnc3)c2)cc1
max activity (at 0.011 µM): 8.88% (inactive)

CN(C)C(=O)c1ccc(-c2ccccc2[C@@H]2[C@@H](CO)N(C(=O)C3CC3)[C@H]2C#N)cc1
max activity (at 0.012 µM): 20.5% (inactive)

Cc1ccc2oc(/N=C(\N)NC(=O)C(C)(C)C)nc2c1
max activity (at 26 µM): -11.8% (inactive)

CN(C(=O)COC(=O)c1cc(-c2ccccc2Cl)nc2ccccc12)C1CCS(=O)(=O)C1 (centres undefined)
max activity (at 0.1 µM): -27.5% (inactive)

Cc1ccc(S(=O)(=O)N(C)C[C@@H]2Oc3ccc(NC(=O)CCCCCC(=O)Nc4ccccc4N)cc3CC(=O)N([C@@H](C)CO)C[C@@H]2C)cc1
max activity (at 0.8 µM): -38.7% (inactive)
